Reference: patent publication US8791148B2, “Substituted benzimidazolone derivatives, medicaments comprising them and their use” (AbbVie Deutschland GmbH & Co. KG, priority 2006, dated 2014)

Target: T1, human vasopressin V1b receptor (Homo sapiens, UniProt P47901)
T1 construct: expressed in transfected cells; host or cells: CHO-K1 (cell line hV1b-3H2_CHO), membrane preparation
T1 sequence (P47901 1-424): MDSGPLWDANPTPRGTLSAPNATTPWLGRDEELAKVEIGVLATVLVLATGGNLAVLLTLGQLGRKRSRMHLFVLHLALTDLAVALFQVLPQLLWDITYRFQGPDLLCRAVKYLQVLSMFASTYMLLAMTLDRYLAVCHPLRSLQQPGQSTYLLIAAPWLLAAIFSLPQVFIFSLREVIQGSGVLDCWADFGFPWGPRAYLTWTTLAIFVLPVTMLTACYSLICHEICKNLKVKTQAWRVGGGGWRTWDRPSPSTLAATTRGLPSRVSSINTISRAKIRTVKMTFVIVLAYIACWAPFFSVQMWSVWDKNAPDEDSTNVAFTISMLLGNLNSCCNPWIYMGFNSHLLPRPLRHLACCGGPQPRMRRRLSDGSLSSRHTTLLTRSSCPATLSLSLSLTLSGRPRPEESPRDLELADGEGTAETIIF
Test: Vasopressin V1b receptor binding assay
Settings: membranes from CHO-K1 cells with stably expressed human V1b receptors; displacement of 1.5 nM 3H-AVP; read-out: V1b receptor affinity (affinity constant Ki)
Experimental: Vasopressin V1b Receptor Binding Assay:
The test substances were dissolved in a concentration of 10^−2 M in DMSO and further diluted to 5×10^−4 M to 5×10^−9 M in DMSO. This series of DMSO predilutions was diluted 1:10 with assay buffer. The substance concentration was again diluted 1:5 in the assay mixture (2% DMSO in the mixture).
The membrane pellet was again homogenized and centrifuged as described and then taken up in 50 mM Tris-HCl, pH 7.4, homogenized and stored in aliquots frozen in liquid nitrogen at −190° C.
The incubation buffer was: 50 mM Tris, 10 mM MgCl2, 0.1% BSA, pH 7.4. […] The nonspecific binding was determined with 1 uM AVP (Bachem #H1780). All determinations were carried out as triplicate determinations. After incubation (60 minutes at room temperature), the free radioligand was removed by vacuum filtration (Skatron cell harvester 7000) through Wathman GF/B glass fiber filter mats, and the filters were transferred into scintillation vials. The liquid scintillation measurement took place in a Tricarb model 2000 or 2200CA instrument (Packard). Conversion of the measured cpm into dpm was carried out with the aid of a standard quench series.
The binding parameters were calculated by nonlinear regression in SAS.
The above assay was used to measure the affinities of the compounds of the invention for the human vasopressin V1b receptor and to determine the affinity constants (Ki).

SMILES	Ki [nM]
COc1ccc(S(=O)(=O)n2c(=O)n(CC(=O)N3CCN(c4ccncc4)CC3)c3cc(Cl)ccc32)cc1 [Example 24, 5-Chloro-1-(4-methoxybenzenesulfonyl)-3-[2-oxo-2-(4-pyridin-4-ylpiperazin-1-yl)-ethyl]-1,3-dihydrobenzimidazol-2-one]	100 to 500
COc1ccc(S(=O)(=O)n2c(=O)n(CC(=O)N3CCN(c4ccncc4)CC3)c3cc(Cl)ccc32)c(OC)c1 [Example 25, 5-Chloro-1-(2,4-dimethoxybenzenesulfonyl)-3-[2-oxo-2-(4-pyridin-4-ylpiperazin-1-yl)-ethyl]-1,3-dihydrobenzimidazol-2-one]	100 to 500
N#Cc1ccc(S(=O)(=O)n2c(=O)n(CC(=O)N3CCN(c4ccncc4)CC3)c3cc(Cl)ccc32)cc1 [Example 26, 4-{5-Chloro-2-oxo-3-[2-oxo-2-(4-pyridin-4-ylpiperazin-1-yl)ethyl]-2,3-dihydrobenzimidazole-1-sulfonyl}benzonitrile]	500 to 10000
COc1ccc(S(=O)(=O)n2c(=O)n(C(Cc3ccccc3)C(=O)N3CCN(c4ccncc4)CC3)c3cc(Cl)ccc32)cc1 (stereo not drawn) [Example 27, 3-[1-Benzyl-2-oxo-2-(4-pyridin-4-ylpiperazin-1-yl)ethyl]-5-chloro-1-(4-methoxybenzenesulfonyl)-1,3-dihydrobenzimidazol-2-one]	100 to 500
COc1ccc(S(=O)(=O)n2c(=O)n(C(Cc3ccccc3)C(=O)N3CCN(c4ccncc4)CC3)c3cc(Cl)ccc32)c(OC)c1 (stereo not drawn) [Example 28, 3-[1-Benzyl-2-oxo-2-(4-pyridin-4-ylpiperazin-1-yl)ethyl]-5-chloro-1-(2,4-dimethoxybenzenesulfonyl)-1,3-dihydrobenzimidazol-2-one]	< 100
N#Cc1ccc(S(=O)(=O)n2c(=O)n(C(Cc3ccccc3)C(=O)N3CCN(c4ccncc4)CC3)c3cc(Cl)ccc32)cc1 (stereo not drawn) [Example 29, 4-{3-[1-Benzyl-2-oxo-2-(4-pyridin-4-ylpiperazin-1-yl)ethyl]-5-chloro-2-oxo-2,3-dihydrobenzimidazol-1-sulfonyl}-benzonitrile]	500 to 10000
COc1ccc(S(=O)(=O)n2c(=O)n(C(C)C(=O)N3CCN(c4ccncc4)CC3)c3cc(Cl)ccc32)cc1 (stereo not drawn) [Example 30, 5-Chloro-1-(4-methoxybenzenesulfonyl)-3-[1-methyl-2-oxo-2-(4-pyridin-4-ylpiperazin-1-yl)-ethyl]-1,3-dihydrobenzimidazol-2-one]	500 to 10000
COc1ccc(S(=O)(=O)n2c(=O)n(C(C)C(=O)N3CCN(c4ccncc4)CC3)c3cc(Cl)ccc32)c(OC)c1 (stereo not drawn) [Example 31, 5-Chloro-1-(2,4-dimethoxybenzenesulfonyl)-3-[1-methyl-2-oxo-2-(4-pyridin-4-ylpiperazin-1-yl)ethyl]-1,3-dihydrobenzimidazol-2-one]	100 to 500
CC(C(=O)N1CCN(c2ccncc2)CC1)n1c(=O)n(S(=O)(=O)c2ccc(C#N)cc2)c2ccc(Cl)cc21 (stereo not drawn) [Example 32, 4-{5-Chloro-3-[1-methyl-2-oxo-2-(4-pyridin-4-ylpiperazin-1-yl)ethyl]-2-oxo-2,3-dihydrobenzimidazole-1-sulfonyl}benzonitrile]	500 to 10000
COc1ccc(C(C(=O)N2CCN(c3ccncc3)CC2)n2c(=O)n(S(=O)(=O)c3ccc(OC)cc3)c3ccc(Cl)cc32)cc1 (stereo not drawn) [Example 33, 5-Chloro-1-(4-methoxybenzenesulfonyl)-3-[1-(4-methoxyphenyl)-2-oxo-2-(4-pyridin-4-ylpiperazin-1-yl)-ethyl]-1,3-dihydrobenzimidazol-2-one]	100 to 500
CN1CCC(N2CCN(C(=O)C(c3ccccc3)n3c(=O)n(S(=O)(=O)c4cccc5cccnc45)c4cc(Cl)c(Cl)cc43)CC2)CC1 (stereo not drawn) [Example 35, 5,6-Dichloro-1-{2-[4-(1-methylpiperidin-4-yl)piperazin-1-yl]-2-oxo-1-phenylethyl}-3-(quinoline-8-sulfonyl)-1,3-dihydrobenzimidazol-2-one]	500 to 10000
COc1ccc(S(=O)(=O)n2c(=O)n(C(C(=O)N3CCN(C4CCN(C)CC4)CC3)c3ccccc3)c3cc(Cl)c(Cl)cc32)cc1 (stereo not drawn) [Example 36, 5,6-Dichloro-1-(4-methoxybenzenesulfonyl)-3-{2-[4-(1-methylpiperidin-4-yl)piperazin-1-yl]-2-oxo-1-phenylethyl}-1,3-dihydrobenzimidazol-2-one]	500 to 10000
COc1ccc(S(=O)(=O)n2c(=O)n(C(C(=O)N3CCN(C4CCN(C)CC4)CC3)c3ccccc3)c3ccc(Cl)cc32)c(OC)c1 (stereo not drawn) [Example 37, 5-Chloro-3-(2,4-dimethoxybenzenesulfonyl)-1-{2-[4-(1-methylpiperidin-4-yl)piperazin-1-yl]-2-oxo-1-phenylethyl}-1,3-dihydrobenzimidazol-2-one]	500 to 10000
COc1ccc(S(=O)(=O)n2c(=O)n(C(C(=O)N3CCN(C4CCN(C)CC4)CC3)c3ccccc3)c3ccc(Cl)cc32)cc1 (stereo not drawn) [Example 38, 5-Chloro-3-(4-methoxybenzenesulfonyl)-1-{2-[4-(1-methylpiperidin-4-yl)piperazin-1-yl]-2-oxo-1-phenylethyl}-1,3-dihydrobenzimidazol-2-one]	100 to 500
CN1CCC(N2CCN(C(=O)C(c3ccccc3)n3c(=O)n(S(=O)(=O)c4ccc(C#N)cc4)c4cc(Cl)ccc43)CC2)CC1 (stereo not drawn) [Example 39, 4-(6-Chloro-3-{2-[4-(1-methylpiperidin-4-yl)piperazin-1-yl]-2-oxo-1-phenylethyl}-2-oxo-2,3-dihydrobenzimidazole-1-sulfonyl)benzonitrile]	500 to 10000
O=C(C(c1ccccc1)n1c(=O)n(S(=O)(=O)c2cccc3cccnc23)c2cc(Cl)c(Cl)cc21)N1CCN(c2ccncc2)CC1 (stereo not drawn) [Example 40, 5,6-Dichloro-1-[2-oxo-1-phenyl-2-(4-pyridin-4-ylpiperazin-1-yl)ethyl]-3-(quinoline-8-sulfonyl)-1,3-dihydrobenzimidazol-2-one]	500 to 10000
COc1ccc(S(=O)(=O)n2c(=O)n(C(C(=O)N3CCN(c4ccncc4)CC3)c3ccccc3)c3ccccc32)cc1 (stereo not drawn) [Example 41, 1-(4-Methoxybenzenesulfonyl)-3-[2-oxo-1-phenyl-2-(4-pyridin-4-ylpiperazin-1-yl)ethyl]-1,3-dihydrobenzimidazol-2-one]	500 to 10000
O=C(C(c1ccccc1)n1c(=O)n(S(=O)(=O)c2ccc(OC(F)(F)F)cc2)c2ccc(Cl)cc21)N1CCN(c2ccncc2)CC1 (stereo not drawn) [Example 42, 5-Chloro-3-[2-oxo-1-phenyl-2-(4-pyridin-4-ylpiperazin-1-yl)ethyl]-1-(4-trifluoromethoxybenzenesulfonyl)-1,3-dihydrobenzimidazol-2-one]	500 to 10000
COc1cc(C)ccc1S(=O)(=O)n1c(=O)n(C(C(=O)N2CCN(c3ccncc3)CC2)c2ccccc2)c2cc(Cl)ccc21 (stereo not drawn) [Example 43, 5-Chloro-1-(2-methoxy-4-methyl-benzenesulfonyl)-3-[2-oxo-1-phenyl-2-(4-pyridin-4-ylpiperazin-1-yl)ethyl]-1,3-dihydrobenzimidazol-2-one]	500 to 10000
O=C(C(c1ccccc1)n1c(=O)n(S(=O)(=O)c2cccs2)c2ccc(Cl)cc21)N1CCN(c2ccncc2)CC1 (stereo not drawn) [Example 44, 5-Chloro-3-[2-oxo-1-phenyl-2-(4-pyridin-4-ylpiperazin-1-yl)ethyl]-1-(thiophene-2-sulfonyl)-1,3-dihydrobenzimidazol-2-one]	100 to 500
COc1ccccc1S(=O)(=O)n1c(=O)n(C(C(=O)N2CCN(c3ccncc3)CC2)c2ccccc2)c2cc(Cl)ccc21 (stereo not drawn) [Example 45, 5-Chloro-1-(2-methoxybenzenesulfonyl)-3-[2-oxo-1-phenyl-2-(4-pyridin-4-ylpiperazin-1-yl)ethyl]-1,3-dihydrobenzimidazol-2-one]	100 to 500
COc1ccc(S(=O)(=O)n2c(=O)n(C(C(=O)N3CCN(c4ccncc4)CC3)c3ccccc3)c3cc(C#N)ccc32)cc1 (stereo not drawn) [Example 46, 1-(4-Methoxybenzenesulfonyl)-2-oxo-3-[2-oxo-1-phenyl-2-(4-pyridin-4-ylpiperazin-1-yl)ethyl]-2,3-dihydro-1H-benzimidazole-5-carbonitrile]	100 to 500
O=C(C(c1ccccc1)n1c(=O)n(S(=O)(=O)c2ccccc2)c2ccc(Cl)cc21)N1CCN(c2ccncc2)CC1 (stereo not drawn) [Example 47, 1-Benzenesulfonyl-5-chloro-3-[2-oxo-1-phenyl-2-(4-pyridin-4-ylpiperazin-1-yl)ethyl]-1,3-dihydrobenzimidazol-2-one]	100 to 500
COc1ccc(S(=O)(=O)n2c(=O)n(C(C(=O)N3CCN(c4ccncc4)CC3)c3ccccc3)c3cc(C#N)ccc32)c(OC)c1 (stereo not drawn) [Example 48, 1-(2,4-Dimethoxybenzenesulfonyl)-2-oxo-3-[2-oxo-1-phenyl-2-(4-pyridin-4-ylpiperazin-1-yl)-ethyl]-2,3-dihydro-1H-benzimidazole-5-carbonitrile]	500 to 10000
